Results from patent US12655104B2, “Anticancer compounds selective for ER-positive cancers” (THE BOARD OF TRUSTEES OF THE UNIVERSITY OF ILLINOIS, priority 2020, dated 2026).
Like-named read-outs stand apart in the source and are kept apart here.

Tests used:
MDA-MB-436 = test: Alamar blue fluorescence viability (IC50), MDA-MB-436; format: cell-based; conditions: Homo sapiens
Procedure: (§1) Cancer Cell Lines: Culturing Conditions and Validation. All cell lines were cultured at 37° C. with 5% CO2. All ERα-positive cell lines were grown in media lacking phenol red. MCF-7 were grown in EMEM with 10% FBS and 1% penicillin-streptomycin (P/S). T47D were cultured in MEM with 10% FBS and 1% P/S. TYS and TDG cells were grown in MEM supplemented with 10% CD-FBS and 1% P/S. HCT-116 and MDA-MB-231 cells were cultured in RPMI-1640 supplemented with 10% FBS and 1% P/S. MDA-MB-436 cells were cultured in DMEM supplemented with 10% FBS and 1% P/S. HT-29 were cultured in McCoy's media supplemented with 10% FBS and 1% P/S. All cell lines were used directly from ATCC stocks and/or have been further authenticated using PowerPlex16HS Assay (Promega) as described previously.^54 In short, >1 million cells were harvested and lysed using the cell lysis buffer (50 mM Tris, 50 mM EDTA, 25 mM sucrose, 100 mM NaCl, 1% SDS, pH 8). DNA extraction and short tandem repeats (STRs) profiling for each cell line were carried out at the University of Arizona Genetics Core (UAGC). Autosomal STR profiles were compared to reference databases such as ATCC, DSMZ, and JCRB.
(§2) Alamar Blue Fluorescence for Anticancer Activity (IC50). 2,000-15,000 cells per well were seeded a 96-well plate. Cells were allowed to adhere before DMSO stock solutions of test compounds were added to each well with a final concentration of DMSO in each well=1%; final volume: 100 μL. At the end of the desired incubation time (e.g., 24 or 72 hours), media in each well was aspirated and new fresh media (no compound, 100 μL) was added. Alamar blue solution (4 mg resazurin per 40 mL PBS) was then added (10 μL). After 2-6 hours incubation, each well's fluorescence (λexcit.=555 nm, λemission.=585 nm) was measured using a SpectraMax M3 plate reader (Molecular Devices). Percent dead was determined by comparison to a 100% dead control: 100 μM raptinal treated cells. Dose dependent curves and IC50 were calculated using Origin Pro V10.

HCT-116 = test: Alamar blue fluorescence viability (IC50), HCT-116; format: cell-based; conditions: for IC50: Homo sapiens, HCT-116, ERα negative
Procedure: as §1, §2

T47D-ERαD538G (TDG) = test: Alamar blue fluorescence viability (IC50), TDG; format: cell-based; conditions: TDG, ERα positive, 24 hr; read-out: IC50 24 hr
Procedure: as §1, with “DNA extraction and short tandem repeats (STRs) profiling for each cell line were carried out at the University of Arizona Genetics Core (UAGC). Autosomal STR profiles were compared to reference databases such as ATCC, DSMZ, and JCRB.” left out
(§3) Alamar Blue Fluorescence for Anticancer Activity (IC50). […] After 2-6 hours incubation, each well's fluorescence (λexcit.=555 nm, λemission.=585 nm) was measured using a SpectraMax M3 plate reader (Molecular Devices). Percent dead was determined by comparison to a 100% dead control: 100 μM raptinal treated cells. Dose dependent curves and IC50 were calculated using Origin Pro V10.

[1] = Maximum tolerated dose (MTD) in rats; format: in vivo; conditions: Sprague Dawley, rat, in vivo, iv
From the text: (§4) Maximum Tolerated Dose (MTD) Experiments in Mice and Rats. […] Rodents were monitored for signs of distress, lethargy, neurotoxicity, and so forth for multiple days after compound administration. […] The MTD was defined as the maximum dose in which any acute side effects observed were tolerated and no lethality observed.

[2] = Maximum tolerated dose (MTD) in mice; format: in vivo; conditions: female, CD-1, mouse, in vivo, iv
From the text: as §4

HT-29 = test: Alamar blue fluorescence viability (IC50), HT-29; format: cell-based; conditions: Homo sapiens, HT-29, ERα negative
Procedure: as §1, §2

[3] = Simulated gastric fluid (SGF) stability assay; format: in vitro ADME
Procedure: Simulated Gastric Fluid (SGF) Stability Assay. SGF was prepared fresh by adding 3.2 g pepsin (Sigma Aldrich P7000) to 1000 mL of SGF (Fischer Scientific 7108-16) and the pH adjusted to 1.2 using a pH meter. This SGFwith pepsin solution was then warmed to 37° C. 990 μL of warmed SGFwith pepsin was then aliquoted into multiple Eppendorf tubes, followed by 10 μL of 10 mM DMSO stock solutions of test compounds. Erythromycin (MedChemExpress HY-B0220) is a positive control for this stability assay. Samples were incubated at 37° C. for the entire experiment with vortexing every 15 minutes. At each desired time point (0, 15, 30, 60, 120 minutes), a 100 μL aliquot is removed and quenched into 50 μL of acetonitrile. Samples are stored at 4° C. until all time points are complete. Samples were then vortexed and then clarified at 3,000 RPM for 10 minutes in a 4° C. centrifuge. Supernatants were collected and compound concentrations determined by LC-MS/MS (UIUC Metabolomics Center, Urbana, IL.). Determined compound concentrations were used to calculate percent remaining compared to t=0 samples.

MCF-7 cells = test: Alamar blue fluorescence viability (IC50), MCF-7; format: cell-based; conditions: Homo sapiens, MCF7
Procedure: as §1, §2

T47D-ERaY537S (TYS) = test: Alamar blue fluorescence viability (IC50), TYS; format: cell-based; conditions: 24 h, read-out: IC50 24 hr (μM)
Procedure: as §1, with “DNA extraction and short tandem repeats (STRs) profiling for each cell line were carried out at the University of Arizona Genetics Core (UAGC). Autosomal STR profiles were compared to reference databases such as ATCC, DSMZ, and JCRB.” left out
as §3

T47D = test: Alamar blue fluorescence viability (IC50), T47D; format: cell-based; conditions: Homo sapiens, 24 h, read-out: IC50 24 hr (μM)
Procedure: as §1, with “DNA extraction and short tandem repeats (STRs) profiling for each cell line were carried out at the University of Arizona Genetics Core (UAGC). Autosomal STR profiles were compared to reference databases such as ATCC, DSMZ, and JCRB.” left out
as §3

canines = conditions: cited from earlier work
MDA-MB-231 = test: Alamar blue fluorescence viability (IC50), MDA-MB-231; format: cell-based; conditions: Homo sapiens, MDA-MB-231, ERα negative
Procedure: as §1, §2

MCF-7 tumors = test: MCF-7 orthotopic tumor model; format: in vivo, mice; conditions: I.V. 5 mg/kg once-a-week, three total doses
Procedure: MCF-7 Orthotopic Tumor Model. Nu/J ovariectomized mice (Jackson's lab) were supplemented with a 60-day E2 pellet (0.36 mg, Innovative Research of America) 2-3 days prior to tumor cell inoculation. MCF-7 cells (5×10^6, in 1:1 HBSS:matrigel) were inoculated into the mammary fat pad and allowed to establish and tumors grown to ˜300-400 mm^3 (˜21-28 days to establish). […] Tumor size was measured by caliper, and mouse weights were recorded.

[4] = Pharmacokinetic (PK) studies in mice; format: in vivo
Procedure: Pharmacokinetic (PK) Studies. […] Mice were then sacrificed in cohorts of 3 at time points (#, #, #). Blood was collected, centrifuged, and plasma separated for quantification of test compound utilizing LC-MS/MS (UIUC Metabolomics Center, Urbana, IL.). Determined compound concentration was then analyzed using non-linear regression programing (WinNonlin) and pharmacokinetic parameters estimated.

[5] = In vitro metabolite assessment of ErSO; format: in vitro ADME
[6] = tested on: CD Sprague Dawley IGS rats; test: Maximum tolerated dose (MTD) in rats; format: in vivo; conditions: rat, in vivo
From the text: as §4

CD-1 mice = test: Maximum tolerated dose (MTD) in mice; format: in vivo; conditions: mouse, in vivo, iv
From the text: as §4

[7] = MCF-7 cells, 24 hours, Alamar blue, mean ± s.e.m., read-out: IC50
[8] = female, CD-1, mouse, plasma, iv, I.V. 20 mg/kg

SMILES: O=C1Nc2c(C(F)(F)F)cccc2[C@@]1(c1ccc(O)cc1)c1ccc(OC(F)(F)F)cc1 [ErSO, (R)-3-(4-hydroxyphenyl)-3-(4-(trifluoromethoxy)phenyl)-7-(trifluoromethyl)indolin-2-one, reference compound]
- IC50 (MDA-MB-436; MDA-MB-436, 24 h, read-out: IC50 24 hr (μM)): 22 ± 1 µM
- IC50 (MDA-MB-436; MDA-MB-436, 72 h, read-out: IC50 72 hr (μM)): 14 ± 1 µM
- effects bottom out at (% cell death at lower concentrations) (HCT-116; HCT-116 cells, bottom of IC50 curve): ~38%
- IC50 (HCT-116; 24 hr, read-out: IC50 24 hr): 11000 nM
- IC50 (HCT-116; 72 hr, read-out: IC50 72 hr): 260 nM
- IC50 (T47D-ERαD538G (TDG)): 15 ± 1 nM
- MTD [1]: 10 to 15 mg/kg
- MTD [2]: 20 mg/kg
- IC50 (HT-29; 24 hr, read-out: IC50 24 hr): 210 ± 60 nM
- IC50 (HT-29; 72 hr, read-out: IC50 72 hr): 250 ± 70 nM
- % Remaining after 120 min (SD) ([3]; 100 μM in SGF with pepsin, 120 min): 93±1%
- half-life at 100 μM ([3]; simulated gastric fluid with pepsin, pH 1.2, SGF with pepsin, read-out: half-life in SGF): > 2 h
- IC50 (MCF-7 cells; MCF-7, ERα positive, 24 hr, read-out: IC50 24 hr): 20 ± 2 nM
- IC50 (MCF-7 cells; MCF-7, ERα positive, 72 hr, read-out: IC50 72 hr): 14 ± 1 nM
- IC50 (MCF-7 cells; [7]): 20 nM
- IC50 (T47D-ERaY537S (TYS)): 0.01 ± 0.001 µM
- IC50 (T47D): 0.02 ± 0.001 µM
- tolerated oral dose (canines): greater than 150 mg/kg
- IC50 (MDA-MB-231; 24 hr, read-out: IC50 24 hr): 23000 ± 3000 nM
- IC50 (MDA-MB-231; 72 hr, read-out: IC50 72 hr): 8000 ± 1000 nM
- mouse weight change during MCF-7 study (MCF-7 tumors): no significant weight change
- CL ([4]; I.V. 20 mg/kg): 33 mL/min/kg
- AUC [4, 8]: 10100 ng·h/mL
- Cmax [4, 8]: 7710 ng/mL
- Vd ([4]; female, CD-1, mouse, plasma, iv, I.V. 20 mg/kg, read-out: Vss): 10.2 L/kg
- bioavailability ([4]; female, CD-1, mouse, plasma, po, read-out: oral availability F %): 47%

SMILES: O=C1Nc2c(C(F)(F)F)cccc2[C@]1(c1ccc(OC(F)(F)F)cc1)c1ccc(O)c(O)c1 [ErSO-OH, (S)-3-(3,4-dihydroxyphenyl)-3-(4-(trifluoromethoxy)phenyl)-7-(trifluoromethyl)indolin-2-one]
- abundance as metabolite of ErSO [5]: < 1%
- rat tolerability (in words) [6]: no gains in rat tolerability
- intravenous tolerability in mice (in words) (CD-1 mice): greater intravenous tolerability in mice
- IC50 (MCF-7 cells; [7]): 24 nM
